# In article PMC11356819 (Molecules, 2024):
# Assays:
# [1] = lipophilicity by shake-flask method (n-octanol/water or PBS); assay type: physicochemical; settings: triplicate
# Protocol: As a measure for the lipophilicity of the four radiolabeled probes, their partition coefficients (logP) and distribution coefficients at pH 7.4 (logD7.4) were determined by the shake-flask method. Table 1 summarizes the results of these experiments and compares them with the predicted logD7.4 values calculated using the ADMETlab platform.
# A solution of the corresponding radiotracer in DMSO (1 µL) was added to a mixture of n-octanol and PBS (pH = 7.4) or water (750 µL of each) in a 2 mL Eppendorf vial and the vial was vortexed for 2 min and centrifuged for another 2 min to separate the two phases. A total of 300 µL of the upper n-octanol phase was then carefully removed from the top, while 300 µL of the aqueous phase was removed by piercing the bottom of the vial with a syringe and cannula to avoid contact with the organic phase. Both fractions were transferred into fresh vials and counted in a gamma counter to determine the ratio between the activity in the organic and the aqueous phase. All measurements were performed in triplicate and the results are expressed as mean ± standard deviation of the logarithm of the partition coefficient between n-octanol and water (logP) or the logarithm of the distribution coefficient between n-octanol and PBS (logD7.4), respectively.
# U87-mIDH cells = experiment: cellular uptake in U87-mIDH cells; assay type: cell-based, human
# Protocol: (§1) Consistent with this assumption, uptake of [^18F]4 and, to a lesser extent, the ^18F-fluoroethoxylated analog [^18F]5 by both cell lines was considerably higher than that of (S)-[^18F]2.
# (§2) Human glioblastoma cells with a c.395G>A knock-in mutation encoding mIDH1R132H (HTB-14IG™) and the corresponding wildtype cells (HTB-14™) were purchased from the American Type Culture Collection (ATCC). The cells were grown under standard culture conditions (5% CO2 and 95% air at 37 °C) in Eagle’s Minimum Essential Medium (MEM) supplemented with 10% fetal bovine serum (FBS) and antibiotics (penicillin–streptomycin mixed solution, Gibco, Thermo Fisher Scientific, Oberhausen, Germany).
# (§3) For the cellular uptake studies, 1.5 × 10^5 cells were seeded into gelatin-coated 12-well transwell plates and incubated in 1 mL MEM (without FBS and antibiotics) containing 18.5 kBq (0.5 µCi) of the corresponding radiotracer. After incubation at 21 °C for 1 h, the supernatant was collected, the cells were lysed with 40 mM NaOH and the radioactivity of both fractions was measured with a gamma counter. The total protein concentration of the cell lysate was measured by a bicinchoninic acid (BCA) assay. The radiotracer uptake was calculated as the ratio of radioactivity in the cell fraction and the supernatant and normalized by protein content (% uptake/100 µg protein). Statistical analysis of the results was performed with Originlab Pro 2023b using two-tailed t-tests with a significance level of 0.05 to identify significant differences between groups.
# U87-WT cells = experiment: cellular uptake in U87-WT cells; assay type: cell-based, human; settings: incubation 1 h
# Protocol: as §1, §2, §3
# U87-WT tumors = experiment: PET imaging and 2TCM kinetic modelling of subcutaneous U87-WT tumors; assay type: in vivo
# Excerpt: (§4) The in vivo tumor uptake and mIDH selectivity of [^18F]4 were investigated by small animal PET imaging in CB17-SCID mice bearing subcutaneous U87-WT and U87-mIDH tumors, which were implanted in the right and left shoulder region, respectively (Figure 6).
# (§5) Although the use of an image-derived input function instead of an invasive arterial input function could introduce some degree of systematic bias (due to, e.g., a lack of correction for spill-over and metabolism), this should affect the parameter estimation for both tumors in a given animal in the same manner and therefore have little impact on inter-tumor comparisons.
# (§6) Six male CB17-SCID mice (24–26 g) were used for the subcutaneous tumor model. Twenty-four hours before tumor implantation, the animals were injected (i.p.) with 20 µL anti-asialo GM1 rabbit (Fujifilm Wako Chemicals Europe GmbH, Neuss, Germany) in 0.9% NaCl (total volume: 100 µL) to promote tumor cell survival and growth through a temporary reduction in natural killer cell activity. For tumor inoculation, suspensions of 5 × 10^6 tumor cells in 75 µL culture medium and 75 µL Corning Matrigel (Merck, Darmstadt, Germany) were injected subcutaneously into the right (U87-WT cells) and left (U87-mIDH cells) shoulder region.
# (§7) The mice were anesthetized with isoflurane (5% for induction, 2% for maintenance) in O2/air (3:7), and a catheter for tracer injection was inserted into the lateral tail vein. They were placed on an animal holder (Medres, Cologne, Germany) and fixed with a tooth bar in a respiratory mask. Body temperature was maintained at 37 °C by warming the animal bed. Eyes were protected from drying with Bepanthen eye and nose ointment (Bayer, Leverkusen, Germany). Respiratory rate was monitored and maintained at around 40–60 breaths per minute by adjusting the isoflurane concentration. A PET scan in list mode was conducted using a Focus 220 micro PET scanner (CTI-Siemens, Erlangen, Germany) with a resolution at the center of the field of view of 1.4 mm. Data acquisition started with intravenous tracer injection and ended after 120 min. This was followed by a 10 min transmission scan using a ^57Co point source for attenuation correction. After the scan was completed, the catheter was removed and the animals were allowed to wake up in their home cage. Data were histogrammed in three ways: (1) 4 × 30 min frames for visual display, (2) 28 frames (2 × 1 min, 2 × 2 min, 6 × 4 min, 18 × 5 min) for determination of time–activity curves, (3) 53 frames (12 × 10 s, 6 × 30 s, 15 × 1 min, 20 × 5 min) for kinetic modelling. Full 3D rebinning was followed by an iterative OSEM3D/MAP reconstruction algorithm with attenuation and decay correction. The resulting voxel sizes were 0.47 mm × 0.47 mm × 0.80 mm.
# U87-mIDH tumors = experiment: PET imaging and 2TCM kinetic modelling of subcutaneous U87-mIDH tumors; assay type: in vivo
# Excerpt: as §4, §5, §6, §7
smiles,measurement,setting,value
COc1cc(NCc2cc3cc([18F])ccc3[nH]c2=O)ccc1C#N [[^18F]4],logD,"[1]; n-octanol/PBS pH 7.4, shake-flask, read-out: logD7.4 Exp. Determined",2.67 ± 0.04
same,logP,"[1]; n-octanol/water, shake-flask, read-out: logP",2.5 ± 0.03
same,fold higher cellular uptake than (S)-[^18F]2,U87-mIDH cells; U87-mIDH and U87-WT cells,5−8 fold
same,cellular uptake,"U87-mIDH cells; U87-mIDH cells, incubation 1 h",6.0 ± 2.0 % per 100 µg protein
same,cellular uptake,U87-WT cells,4.7 ± 1.4 % per 100 µg protein
same,Ratio (WT/mIDH) of SUVbw,U87-WT tumors; 0–30 min,1.1
same,SUVbw U87-WT,U87-WT tumors; 0–30 min,35 ± 4
same,Ratio (WT/mIDH) of SUVbw,U87-WT tumors; 30–60 min,1.7
same,SUVbw U87-WT,U87-WT tumors; 30–60 min,42 ± 9
same,Ratio (WT/mIDH) of SUVbw,U87-WT tumors; 60–90 min,1.9
same,SUVbw U87-WT,U87-WT tumors; 60–90 min,36 ± 10
same,Ratio (WT/mIDH) of SUVbw,U87-WT tumors; 90–120 min,1.9
same,SUVbw U87-WT,U87-WT tumors; 90–120 min,30 ± 10
same,K1,"U87-WT tumors; U87-WT tumor, 2TCM, n = 5",0.174 ± 0.068 mL/ccm/min
same,K1/k2,"U87-WT tumors; U87-WT tumor, 2TCM, n = 5",0.345 ± 0.172 mL/ccm
same,VS (specific distribution volume),"U87-WT tumors; U87-WT tumor, 2TCM, n = 5",0.576 ± 0.143 mL/ccm
same,VT (total distribution volume),"U87-WT tumors; U87-WT tumor, 2TCM, n = 5",0.921 ± 0.250 mL/ccm
same,k2,"U87-WT tumors; U87-WT tumor, 2TCM, n = 5",0.553 ± 0.238 min⁻¹
same,k3,"U87-WT tumors; U87-WT tumor, 2TCM, n = 5",0.089 ± 0.059 min⁻¹
same,"k3/k4, BPND (non-displaceable binding potential)","U87-WT tumors; U87-WT tumor, 2TCM, n = 5",1.874 ± 0.653 1/1
same,k4,"U87-WT tumors; U87-WT tumor, 2TCM, n = 5",0.044 ± 0.022 min⁻¹
same,max. SUVbw U87-WT tumors,"U87-WT tumors; after 38 min, n = 3",45 ± 8
same,SUVbw U87-mIDH,U87-mIDH tumors; 0–30 min,31 ± 3
same,SUVbw U87-mIDH,U87-mIDH tumors; 30–60 min,24 ± 2
same,SUVbw U87-mIDH,U87-mIDH tumors; 60–90 min,18 ± 1
same,SUVbw U87-mIDH,U87-mIDH tumors; 90–120 min,16 ± 1
same,K1,"U87-mIDH tumors; U87-mIDH tumor, 2TCM, n = 5",0.141 ± 0.047 mL/ccm/min
same,K1/k2,"U87-mIDH tumors; U87-mIDH tumor, 2TCM, n = 5",0.246 ± 0.063 mL/ccm
same,VS (specific distribution volume),"U87-mIDH tumors; U87-mIDH tumor, 2TCM, n = 5",0.225 ± 0.070 mL/ccm
same,VT (total distribution volume),"U87-mIDH tumors; U87-mIDH tumor, 2TCM, n = 5",0.471 ± 0.084 mL/ccm
same,k2,"U87-mIDH tumors; U87-mIDH tumor, 2TCM, n = 5",0.578 ± 0.173 min⁻¹
same,k3,"U87-mIDH tumors; U87-mIDH tumor, 2TCM, n = 5",0.057 ± 0.040 min⁻¹
same,"k3/k4, BPND (non-displaceable binding potential)","U87-mIDH tumors; U87-mIDH tumor, 2TCM, n = 5",0.962 ± 0.399 1/1
same,k4,"U87-mIDH tumors; U87-mIDH tumor, 2TCM, n = 5",0.053 ± 0.023 min⁻¹
same,max. SUVbw U87-mIDH tumors,"U87-mIDH tumors; peak after 8 min, n = 3",35 ± 8
